In patent US10654814B2, “Bicyclic hydroxamic acids useful as inhibitors of mammalian histone deacetylase activity” (KANCERA AB, priority 2015, dated 2020):
Counter-ions that a name gives are not always drawn. Like-named read-outs stand apart in the source and are kept apart here.

What was measured:
Assay type in all cases: biochemical
[1] = molecular target: HDAC1 (Homo sapiens (Human), UniProt Q13547); assay: HDAC1 in vitro enzymatic assay (fluorescence); settings: Table 4 selectivity profiling
Sequence of HDAC1 (Q13547 whole entry): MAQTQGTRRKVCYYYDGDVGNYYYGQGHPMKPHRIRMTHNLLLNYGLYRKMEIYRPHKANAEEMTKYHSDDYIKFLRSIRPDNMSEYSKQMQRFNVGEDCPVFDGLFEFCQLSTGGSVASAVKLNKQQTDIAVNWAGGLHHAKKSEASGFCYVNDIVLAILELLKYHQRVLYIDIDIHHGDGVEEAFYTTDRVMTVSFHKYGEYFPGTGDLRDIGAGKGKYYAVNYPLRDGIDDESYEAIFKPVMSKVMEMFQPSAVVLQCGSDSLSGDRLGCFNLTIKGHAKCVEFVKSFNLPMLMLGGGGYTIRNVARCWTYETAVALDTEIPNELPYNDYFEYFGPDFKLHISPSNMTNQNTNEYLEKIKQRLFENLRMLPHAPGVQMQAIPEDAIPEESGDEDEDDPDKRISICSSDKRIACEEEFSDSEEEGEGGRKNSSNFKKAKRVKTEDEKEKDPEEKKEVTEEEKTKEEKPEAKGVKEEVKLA
Description: (§1) Biological Tests Method for Measurement of Enzymatic Activity of HDACs Materials & Methods
(§2) All Examples were tested in HDAC1,2,3,6 and 8 in vitro enzymatic assays. The assay principle is well known (Hauser et al. 2009, Bradner et al. 2010) and all necessary reagents like enzymes, substrates, developer and reference compounds are commercially available (see e.g. BPS Biosciences http://www.bpsbioscience.com/). Stock solutions (10 mM in DMSO) of compounds were serially diluted 1:3 in 11 concentrations with a top concentration of 200 μM for HDAC1,2,3 and 2 μM for HDAC6 and HDAC8. The enzymatic reactions were conducted in a mixture containing assay buffer, bovine serum albumin, HDAC substrate, and a test compound. After enzymatic reaction, developer was added and after an additional incubation time, fluorescence intensity was measured at an excitation wavelength of 360 nm and an emission wavelength of 460 nm. All experiments were performed in duplicate.

[2] = molecular target: HDAC2 (Homo sapiens (Human), UniProt Q92769); assay: HDAC2 in vitro enzymatic assay (fluorescence); settings: Table 4 selectivity profiling
Sequence of HDAC2 (Q92769 whole entry): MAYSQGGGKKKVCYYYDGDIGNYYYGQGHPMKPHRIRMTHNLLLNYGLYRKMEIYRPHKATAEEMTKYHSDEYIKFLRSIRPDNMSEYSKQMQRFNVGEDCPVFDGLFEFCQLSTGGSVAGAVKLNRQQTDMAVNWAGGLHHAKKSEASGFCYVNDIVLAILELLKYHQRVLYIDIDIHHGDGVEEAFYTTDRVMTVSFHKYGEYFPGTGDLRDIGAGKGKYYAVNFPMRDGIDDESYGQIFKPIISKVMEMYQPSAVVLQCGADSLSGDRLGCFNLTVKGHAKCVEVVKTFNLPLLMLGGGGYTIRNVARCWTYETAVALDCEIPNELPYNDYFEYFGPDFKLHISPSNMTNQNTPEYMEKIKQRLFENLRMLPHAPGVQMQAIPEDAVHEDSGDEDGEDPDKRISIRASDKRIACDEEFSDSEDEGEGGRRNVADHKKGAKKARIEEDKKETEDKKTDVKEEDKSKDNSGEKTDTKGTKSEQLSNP
Description: as §1, §2

[3] = molecular target: HDAC3 (Homo sapiens (Human), UniProt O15379); assay: HDAC3 in vitro enzymatic assay (fluorescence); settings: Table 4 selectivity profiling
Sequence of HDAC3 (O15379 whole entry): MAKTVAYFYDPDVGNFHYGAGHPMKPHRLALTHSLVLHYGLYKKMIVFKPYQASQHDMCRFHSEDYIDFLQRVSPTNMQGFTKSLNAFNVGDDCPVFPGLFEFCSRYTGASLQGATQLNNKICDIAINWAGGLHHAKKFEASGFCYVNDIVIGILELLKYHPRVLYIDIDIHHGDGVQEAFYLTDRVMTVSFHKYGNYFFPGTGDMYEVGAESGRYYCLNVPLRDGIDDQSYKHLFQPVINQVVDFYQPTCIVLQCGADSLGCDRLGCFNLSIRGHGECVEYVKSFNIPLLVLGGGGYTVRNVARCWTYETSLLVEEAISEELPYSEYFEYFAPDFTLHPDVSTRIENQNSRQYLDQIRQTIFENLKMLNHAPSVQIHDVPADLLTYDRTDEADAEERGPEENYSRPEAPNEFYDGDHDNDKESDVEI
Sequence of HDAC3 (Q9Y618 395-489 partner): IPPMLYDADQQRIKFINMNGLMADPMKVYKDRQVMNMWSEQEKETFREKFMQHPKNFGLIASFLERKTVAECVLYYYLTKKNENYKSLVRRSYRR
Description: as §1, §2

[4] = molecular target: HDAC6 (Homo sapiens (Human), UniProt Q9UBN7); assay: HDAC6 in vitro enzymatic assay (fluorescence)
Sequence of HDAC6 (Q9UBN7 whole entry): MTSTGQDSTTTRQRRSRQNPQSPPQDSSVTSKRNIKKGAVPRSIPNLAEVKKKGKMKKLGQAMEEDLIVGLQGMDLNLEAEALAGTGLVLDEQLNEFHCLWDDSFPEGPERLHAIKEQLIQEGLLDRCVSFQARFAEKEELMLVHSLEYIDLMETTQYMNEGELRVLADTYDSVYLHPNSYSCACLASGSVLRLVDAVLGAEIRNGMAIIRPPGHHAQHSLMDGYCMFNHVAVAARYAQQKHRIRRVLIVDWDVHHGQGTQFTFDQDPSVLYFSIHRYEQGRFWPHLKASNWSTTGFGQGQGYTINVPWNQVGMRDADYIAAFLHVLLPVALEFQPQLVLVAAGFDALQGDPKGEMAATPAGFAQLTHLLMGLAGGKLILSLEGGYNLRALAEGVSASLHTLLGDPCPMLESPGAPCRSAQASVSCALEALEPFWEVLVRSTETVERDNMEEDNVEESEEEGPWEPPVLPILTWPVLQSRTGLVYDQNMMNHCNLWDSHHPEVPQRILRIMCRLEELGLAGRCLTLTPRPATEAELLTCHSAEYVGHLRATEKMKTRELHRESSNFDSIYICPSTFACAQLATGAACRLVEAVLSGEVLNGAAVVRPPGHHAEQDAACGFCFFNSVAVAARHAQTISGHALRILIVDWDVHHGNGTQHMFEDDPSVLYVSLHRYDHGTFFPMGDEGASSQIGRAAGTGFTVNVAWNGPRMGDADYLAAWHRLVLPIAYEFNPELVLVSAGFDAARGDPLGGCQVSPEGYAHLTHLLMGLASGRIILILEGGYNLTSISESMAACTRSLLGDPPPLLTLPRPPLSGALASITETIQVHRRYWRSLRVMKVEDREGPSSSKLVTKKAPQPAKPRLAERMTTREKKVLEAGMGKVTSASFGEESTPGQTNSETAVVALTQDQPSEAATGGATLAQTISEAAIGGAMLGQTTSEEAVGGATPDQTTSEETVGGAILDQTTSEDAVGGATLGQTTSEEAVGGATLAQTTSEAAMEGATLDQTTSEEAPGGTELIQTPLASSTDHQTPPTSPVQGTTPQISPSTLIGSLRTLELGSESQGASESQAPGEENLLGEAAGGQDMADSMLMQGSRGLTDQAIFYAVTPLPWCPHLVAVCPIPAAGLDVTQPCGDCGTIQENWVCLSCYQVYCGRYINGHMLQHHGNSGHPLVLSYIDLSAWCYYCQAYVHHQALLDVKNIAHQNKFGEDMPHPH
Description: as §1, §2

[5] = molecular target: HDAC8 (Homo sapiens (Human), UniProt Q9BY41); assay: HDAC8 in vitro enzymatic assay (fluorescence); settings: Table 4 selectivity profiling
Sequence of HDAC8 (Q9BY41 whole entry): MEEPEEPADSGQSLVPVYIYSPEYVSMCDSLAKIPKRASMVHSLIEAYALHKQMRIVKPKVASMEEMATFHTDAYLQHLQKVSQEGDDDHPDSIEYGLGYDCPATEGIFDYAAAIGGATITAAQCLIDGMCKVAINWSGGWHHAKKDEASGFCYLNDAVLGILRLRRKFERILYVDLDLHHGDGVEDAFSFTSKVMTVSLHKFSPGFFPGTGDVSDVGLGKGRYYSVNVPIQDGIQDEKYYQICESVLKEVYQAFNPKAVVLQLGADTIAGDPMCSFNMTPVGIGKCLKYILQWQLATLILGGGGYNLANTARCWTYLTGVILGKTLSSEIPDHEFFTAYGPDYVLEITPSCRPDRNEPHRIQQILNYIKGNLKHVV
Description: as §1, §2

[6] = Table 3, read-out: IC50 (nM) for inhibition of HDAC6
[7] = Table 4 selectivity profiling, read-out: IC50 (nM) HDAC6

SMILES | IC50 [1] [nM] | IC50 [2] [nM] | IC50 [3] [nM] | IC50 [4, 6] [nM] | IC50 [4, 7] [nM] | IC50 [5] [nM]
O=C(NO)c1ccc2oc(-c3ccc(C(F)(F)F)cc3)nc2c1 [Example 18, N-hydroxy-2-[4-(trifluoromethyl)phenyl]-1,3-benzoxazole-5-carboxamide] | 2000 | 11000 | 1600 |  | 37 | 1300
O=C(NO)c1ccc2oc(-c3ccc(C4CC4)cc3)nc2c1 [Example 29, 2-(4-Cyclopropylphenyl)-N-hydroxy-1,3-benzoxazole-5-carboxamide] | 2100 | 10000 | 1000 | 10 | 10 | 1400
O=C(NO)c1ccc2sc(-c3cccnc3)cc2c1 [Example 96, N-hydroxy-2-pyridin-3-yl-1-benzothiophene-5-carboxamide] | 9700 | 55000 | 7200 | 64 | 64 | 960
CCN(CC)Cc1cc2ccc(C(=O)NO)cc2o1 [Example 117, 2-[(Diethylamino)methyl]-N-hydroxy-1-benzofuran-6-carboxamide trifluoroacetate] | 19000 | 69000 | 25000 | 64 | 26 | 1400
O=C(NO)c1ccc2oc(-c3ccccc3Cl)nc2c1 [Example 12, 2-(2-chlorophenyl)-N-hydroxy-1,3-benzoxazole-5-carboxamide] | 1200 | 52000 | 560 | 5 | 5 | 880
Cc1noc(C)c1-c1cc2cc(C(=O)NO)ccc2s1 [Example 100, 2-(3,5-dimethylisoxazol-4-yl)-N-hydroxy-1-benzothiophene-5-carboxamide] | 14000 | 74000 | 18000 | 36 | 36 | 760
O=C(NO)c1ccc2nc(-c3ccc4[nH]nnc4c3)oc2c1 [Example 54, 2-(1H-Benzotriazol-5-yl)-N-hydroxy-1,3-benzoxazole-6-carboxamide] |  |  |  | 60 |  | 
O=C(NO)c1ccc2sc(-c3cncc(Br)c3)nc2c1 [Example 80, 2-(5-Bromopyridin-3-yl)-N-hydroxy-1,3-benzothiazole-5-carboxamide] |  |  |  | 30 |  | 
CS(=O)(=O)Nc1ccc(-c2cc3cc(C(=O)NO)ccc3s2)cc1 [Example 109, N-hydroxy-2-{4-[(methylsulfonyl)amino]phenyl}-1-benzothiophene-5-carboxamide] |  |  |  | 86 |  | 
CC1CCN(c2ccc(-c3nc4cc(C(=O)NO)ccc4o3)cn2)CC1 [Example 152, N-Hydroxy-2-[6-(4-methylpiperidin-1-yl)pyridin-3-yl]-1,3-benzoxazole-5-carboxamide trifluoroacetate] |  |  |  | 30 |  | 
O=C(NO)c1ccc2oc(-c3ccc(-c4cccnc4)cc3)nc2c1 [Example 23, N-hydroxy-2-(4-pyridin-3-ylphenyl)-1,3-benzoxazole-5-carboxamide] |  |  |  | 11 |  | 
O=C(NO)c1ccc2oc(-c3ccccc3)nc2c1 [Example 7, N-hydroxy-2-phenyl-1,3-benzoxazole-5-carboxamide] |  |  |  | 15 |  | 
CCc1ccc(-c2nc3cc(C(=O)NO)ccc3s2)cc1 [Example 82, 2-(4-Ethylphenyl)-N-hydroxy-1,3-benzothiazole-5-carboxamide] |  |  |  | 11 |  | 
O=C(NO)c1ccc2oc(N3CCc4ccccc4C3)nc2c1 [Example 46, 2-(3,4-dihydroisoquinolin-2(1H)-yl)-N-hydroxy-1,3-benzoxazole-5-carboxamide] |  |  |  | 48 |  | 
O=C(NO)c1ccc2sc(-c3ccc(F)cc3)nc2c1 [Example 76, 2-(4-Fluorophenyl)-N-hydroxy-1,3-benzothiazole-5-carboxamide] | 1500 | 6600 | 450 | 18 | 18 | 340
O=C(NO)c1ccc2oc(-c3ccc(NC4CCCCCC4)nc3)nc2c1 [Example 158, 2-[6-(cycloheptylamino)pyridin-3-yl]-N-hydroxy-1,3-benzoxazole-5-carboxamide trifluoroacetate] |  |  |  | 34 |  | 
COc1ccccc1N1CCN(c2ccc(-c3nc4cc(C(=O)NO)ccc4o3)cn2)CC1 [Example 160, N-hydroxy-2-{6-[4-(2-methoxyphenyl)piperazin-1-yl]pyridin-3-yl}-1,3-benzoxazole-5-carboxamide trifluoroacetate] |  |  |  | 21 |  | 
O=C(NO)c1ccc2nc(-c3cccc4cccnc34)sc2c1 [Example 70, N-hydroxy-2-quinolin-8-yl-1,3-benzothiazole-6-carboxamide] | 6100 | 19000 | 2300 |  | 65 | 320
O=C(NO)c1ccc2oc(-c3ccc(Br)cc3)nc2c1 [Example 2, 2-(4-bromophenyl)-N-hydroxy-1,3-benzoxazole-5-carboxamide] |  |  |  | 4 |  | 

Now from value to compound:

IC50 [1] [nM] | IC50 [2] [nM] | IC50 [3] [nM] | IC50 [4, 6] [nM] | IC50 [4, 7] [nM] | IC50 [5] [nM] | SMILES
500 | 2000 | 330 | 22 | 22 | 120 | CC(C)c1ccc(-c2cc3cc(C(=O)NO)cnc3o2)cc1 [Example 113, N-Hydroxy-2-[4-(1-methylethyl)phenyl]furo[2,3-b]pyridine-5-carboxamide]
550 | 3500 | 320 | 7 | 7 | 1500 | O=C(NO)c1ccc2oc(COc3cccc(F)c3)cc2c1 [Example 162, 2-[(3-Fluorophenoxy)methyl]-N-hydroxy-1-benzofuran-5-carboxamide]
> 200000 | > 200000 | 960 |  | 16 | 384 | COc1ccc(-c2ccc(-c3nc4cc(C(=O)NO)ccc4o3)c(F)c2)cn1 [Example 176, 2-[2-fluoro-4-(6-methoxypyridin-3-yl)phenyl]-N-hydroxy-1,3-benzoxazole-5-carboxamide]
1200 | 24000 | 370 | 17 | 17 | 240 | O=C(NO)c1ccc2nc(Nc3cccc(OCc4ccccc4)c3)[nH]c2c1 [Example 132, 2-((3-(benzyloxy)phenyl)amino)-N-hydroxy-1H-benzo[d]imidazole-6-carboxamide]
 |  |  | 44 |  |  | O=C(NO)c1ccc2oc(-c3ccc4c(c3)OCCO4)nc2c1 [Example 219, 2-(2,3-Dihydro-1,4-benzodioxin-6-yl)-N-hydroxy-1,3-benzoxazole-5-carboxamide]
 |  |  | 16 |  |  | O=C(NO)c1ccc2sc(CN3CCCCC3)nc2c1 [Example 273, N-Hydroxy-2-(piperidin-1-ylmethyl)-1,3-benzothiazole-5-carboxamide]
 |  |  | 9 |  |  | O=C(NO)c1ccc2cc(-c3ccccc3)oc2c1 [Example 282, N-Hydroxy-2-phenyl-1-benzofuran-6-carboxamide]
 |  |  | 74 |  |  | O=C(NO)c1ccc2cc(CO)oc2c1 [Example 119, N-hydroxy-2-(hydroxymethyl)-1-benzofuran-6-carboxamide]
 |  |  | 23 |  |  | CC(C)c1ccc(-c2cc3ncc(C(=O)NO)cc3o2)cc1 [Example 115, N-Hydroxy-2-[4-(1-methylethyl)phenyl]furo[3,2-b]pyridine-6-carboxamide]
 |  |  | 37 |  |  | O=C(NO)c1ccc2sc(CO)nc2c1 [Example 271, N-Hydroxy-2-(hydroxymethyl)-1,3-benzothiazole-5-carboxamide]
 |  |  | 32 |  |  | O=C(NO)c1ccc2oc(-c3cccc(O)c3)nc2c1 [Example 220, N-hydroxy-2-(3-hydroxyphenyl)-1,3-benzoxazole-5-carboxamide]
 |  |  | 7 |  |  | Cn1c(N2CCC(Cc3ccccc3)CC2)nc2cc(C(=O)NO)ccc21 [Example 143, 2-(4-benzylpiperidin-1-yl)-N-hydroxy-1-methyl-1H-benzo[d]imidazole-5-carboxamide]
 |  |  | 50 |  |  | CC(C)c1ccc(-c2cc3ncc(C(=O)NO)cc3s2)cc1 [Example 110, N-Hydroxy-2-[4-(1-methylethyl)phenyl]thieno[3,2-b]pyridine-6-carboxamide]
470 | 6900 | 640 | 4 | 4 | 210 | COc1cccc(-c2cc3ccc(C(=O)NO)cc3o2)c1 [Example 285, N-hydroxy-2-(3-methoxyphenyl)-1-benzofuran-6-carboxamide]
 |  |  | 72 |  |  | O=C(NO)c1ccc2nc(Nc3cccc(-c4ccccc4)c3)[nH]c2c1 [Example 136, 2-([1,1′-biphenyl]-3-ylamino)-N-hydroxy-1H-benzo[d]imidazole-6-carboxamide]
 |  |  | 20 |  |  | COc1cc(-c2ccccc2F)ccc1-c1nc2cc(C(=O)NO)ccc2o1 [Example 196, 2-(2′-fluoro-3-methoxybiphenyl-4-yl)-N-hydroxy-1,3-benzoxazole-5-carboxamide]
